Assay results as given in PMC9516332 (Frontiers in Oncology, 2022).
Where two headings read alike, the source gives them in different places.

Assays:
Assay in all cases: Kinase panel profiling at 1 µmol/L (MSA or IMAP), percentage inhibition
Format in all cases: biochemical
[1] = target: T1, panel of 255 wild-type kinases (Homo sapiens, UniProt Q16832); settings: read-out: %-inhibition at 1 µmol/L, DDR2
T1 sequence (Q16832 22-855): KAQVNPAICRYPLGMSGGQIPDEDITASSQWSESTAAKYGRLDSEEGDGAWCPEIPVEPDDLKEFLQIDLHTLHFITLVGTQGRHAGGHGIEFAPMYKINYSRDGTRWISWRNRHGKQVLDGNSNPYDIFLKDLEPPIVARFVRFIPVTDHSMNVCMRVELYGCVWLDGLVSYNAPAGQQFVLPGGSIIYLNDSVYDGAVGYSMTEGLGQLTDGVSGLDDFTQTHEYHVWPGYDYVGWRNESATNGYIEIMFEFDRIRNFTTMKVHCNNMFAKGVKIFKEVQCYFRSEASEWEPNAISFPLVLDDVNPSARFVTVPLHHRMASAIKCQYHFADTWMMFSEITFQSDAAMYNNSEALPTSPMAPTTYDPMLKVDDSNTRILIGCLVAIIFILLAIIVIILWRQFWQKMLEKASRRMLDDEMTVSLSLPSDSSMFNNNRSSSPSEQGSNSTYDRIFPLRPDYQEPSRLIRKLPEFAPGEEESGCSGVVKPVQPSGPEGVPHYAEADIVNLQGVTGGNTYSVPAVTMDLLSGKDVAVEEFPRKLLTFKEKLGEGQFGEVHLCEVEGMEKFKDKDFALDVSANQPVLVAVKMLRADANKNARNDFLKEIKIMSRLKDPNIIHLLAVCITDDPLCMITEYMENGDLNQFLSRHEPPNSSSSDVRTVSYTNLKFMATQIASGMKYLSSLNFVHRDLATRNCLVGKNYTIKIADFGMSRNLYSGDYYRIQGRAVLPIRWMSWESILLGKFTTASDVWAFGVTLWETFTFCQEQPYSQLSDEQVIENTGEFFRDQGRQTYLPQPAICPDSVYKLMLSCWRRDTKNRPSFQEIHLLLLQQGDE

[2] = target: panel of 255 wild-type kinases (Homo sapiens, UniProt Q9HC98); settings: read-out: %-inhibition, NEK6
[3] = target: panel of 255 wild-type kinases (Homo sapiens, UniProt P11309); settings: read-out: %-inhibition at 1 µmol/L, PIM1
[4] = target: panel of 255 wild-type kinases (Homo sapiens, UniProt P49137); settings: read-out: %-inhibition at 1 µmol/L, MAPKAPK2
[5] = target: panel of 255 wild-type kinases (Homo sapiens, UniProt P49674); settings: read-out: %-inhibition at 1 µmol/L, CK1ε
[6] = target: panel of 255 wild-type kinases (Homo sapiens, UniProt P51617); settings: read-out: %-inhibition at 1 µmol/L, IRAK1
[7] = target: panel of 255 wild-type kinases (Homo sapiens, UniProt Q9HCP0); settings: read-out: %-inhibition at 1 µmol/L, CK1γ1
[8] = target: T2, panel of 255 wild-type kinases (Homo sapiens, UniProt P52333); settings: read-out: %-inhibition at 1 µmol/L, JAK3
T2 sequence (P52333 1-1124): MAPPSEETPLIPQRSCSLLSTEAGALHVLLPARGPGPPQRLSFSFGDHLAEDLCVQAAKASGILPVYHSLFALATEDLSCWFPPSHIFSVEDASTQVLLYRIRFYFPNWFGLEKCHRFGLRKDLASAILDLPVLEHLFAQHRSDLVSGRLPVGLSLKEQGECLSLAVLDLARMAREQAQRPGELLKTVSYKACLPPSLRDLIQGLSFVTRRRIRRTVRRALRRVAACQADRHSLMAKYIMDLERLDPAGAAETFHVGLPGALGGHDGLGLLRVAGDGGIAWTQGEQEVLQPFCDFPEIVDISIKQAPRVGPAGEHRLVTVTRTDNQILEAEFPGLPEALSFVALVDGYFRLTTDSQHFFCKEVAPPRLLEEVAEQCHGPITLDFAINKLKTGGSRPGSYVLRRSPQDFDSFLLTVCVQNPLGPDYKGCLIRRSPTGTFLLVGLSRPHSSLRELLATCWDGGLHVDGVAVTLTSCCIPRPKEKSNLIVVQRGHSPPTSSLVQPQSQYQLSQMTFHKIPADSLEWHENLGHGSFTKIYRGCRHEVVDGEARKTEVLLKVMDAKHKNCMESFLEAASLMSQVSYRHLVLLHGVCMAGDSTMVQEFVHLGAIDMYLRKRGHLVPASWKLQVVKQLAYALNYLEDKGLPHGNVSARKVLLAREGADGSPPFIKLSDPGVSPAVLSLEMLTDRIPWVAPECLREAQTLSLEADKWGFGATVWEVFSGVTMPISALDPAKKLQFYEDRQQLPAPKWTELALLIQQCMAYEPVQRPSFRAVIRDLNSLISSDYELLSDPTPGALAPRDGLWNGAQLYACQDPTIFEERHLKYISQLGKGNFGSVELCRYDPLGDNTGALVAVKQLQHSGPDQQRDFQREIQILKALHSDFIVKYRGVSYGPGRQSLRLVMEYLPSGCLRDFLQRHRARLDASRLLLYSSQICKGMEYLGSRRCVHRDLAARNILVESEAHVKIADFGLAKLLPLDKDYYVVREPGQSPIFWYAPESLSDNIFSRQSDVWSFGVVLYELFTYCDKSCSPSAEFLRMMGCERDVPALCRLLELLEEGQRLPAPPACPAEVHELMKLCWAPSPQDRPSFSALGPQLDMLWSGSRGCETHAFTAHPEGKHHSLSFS

[9] = target: panel of 255 wild-type kinases (Homo sapiens, UniProt Q16644); settings: read-out: %-inhibition, MAPKAPK3
[10] = target: panel of 255 wild-type kinases (Homo sapiens, UniProt P28482); settings: read-out: %-inhibition at 1 µmol/L, Erk2
[11] = kinase DDR2, 1 µmol/L single concentration
[12] = NEK6, 1 µmol/L single concentration
[13] = kinase PIM1, 1 µmol/L single concentration
[14] = kinase MAPKAPK2, 1 µmol/L single concentration
[15] = kinase CK1ε, 1 µmol/L single concentration
[16] = kinase IRAK1, 1 µmol/L single concentration
[17] = kinase CK1γ1, 1 µmol/L single concentration
[18] = kinase JAK3, 1 µmol/L single concentration
[19] = MAPKAPK3, 1 µmol/L single concentration
[20] = kinase Erk2, 1 µmol/L single concentration

| SMILES | inhibition at 1 µM [1, 11] [%] | inhibition at 1 µM [2, 12] [%] | inhibition at 1 µM [3, 13] [%] | inhibition at 1 µM [4, 14] [%] | inhibition at 1 µM [5, 15] [%] | inhibition at 1 µM [6, 16] [%] | inhibition at 1 µM [7, 17] [%] | inhibition at 1 µM [8, 18] [%] | inhibition at 1 µM [9, 19] [%] | inhibition at 1 µM [10, 20] [%] | inhibition at 1 µM [1] [%] | inhibition at 1 µM [2] [%] | inhibition at 1 µM [3] [%] | inhibition at 1 µM [4] [%] | inhibition at 1 µM [5] [%] | inhibition at 1 µM [6] [%] | inhibition at 1 µM [7] [%] | inhibition at 1 µM [8] [%] | inhibition at 1 µM [9] [%] | inhibition at 1 µM [10] [%] |
| --- | --- | --- | --- | --- | --- | --- | --- | --- | --- | --- | --- | --- | --- | --- | --- | --- | --- | --- | --- | --- |
| Cn1cnc2c(F)c(Nc3ccc(Br)cc3Cl)c(C(=O)NOCCO)cc21 [selumetinib] | -0.119 | -1.5 | -6 | -5 | -0.361 | -2.71 | -2.69 | 6 | -14 | -4.4 |  |  |  |  |  |  |  |  |  |  |
| CCN1C(=O)N(c2c(F)c(OC)cc(OC)c2F)Cc2cnc3[nH]c(CN4CCOCC4)cc3c21 [pemigatinib] | 5 | -2.6 | -7 | -0.432 | 1.32 | -5.31 | -5.5 | 0.2 | -12 | -1.6 |  |  |  |  |  |  |  |  |  |  |
| CNC(=O)c1ccc(-c2cnc3ncc(Cc4ccc5ncccc5c4)n3n2)cc1F [capmatinib] |  |  |  |  |  |  |  |  |  |  | -1 | -4 | -9 | -28 | -6 | 35 | -1.88 | 3.32 | -11 | 1.14 |
| FC(F)(F)c1ccc(CNc2ccc(Cc3c[nH]c4ncc(Cl)cc34)cn2)cn1 [pexidartinib] | 90 | -0.796 | -3.77 | -32 | 5.38 | -5 | 10 | 40 | -15 | -3.53 |  |  |  |  |  |  |  |  |  |  |
| C[C@H](Nc1ncnc2nc[nH]c12)c1cc2cccc(Cl)c2c(=O)n1-c1ccccc1 [duvelisib] | 8 | -1 | -0.908 | -16 | 5 | -8 | -1.46 | 3 | -13 | 0.0602 |  |  |  |  |  |  |  |  |  |  |
| CO[C@]1(C(=O)N[C@@H](C)c2ccc(-n3cc(F)cn3)nc2)CC[C@H](c2nc(C)cc(Nc3cc(C)[nH]n3)n2)CC1 [pralsetinib] | 102 | -0.0459 | -1.53 | -31 | -3 | 9 | 1.83 | 96 | -22 | 0.23 |  |  |  |  |  |  |  |  |  |  |
| C=CC(=O)N1CCC([C@@H]2CCNc3c(C(N)=O)c(-c4ccc(Oc5ccccc5)cc4)nn32)CC1 [zanubrutinib] | -3.23 | -1 | -11 | -9 | 4.32 | -2.53 | -3.73 |  | -12 | -5 |  |  |  |  |  |  |  | 10 |  |  |
| CCN1CCN(c2ccc(Nc3cc(N(C)C(=O)Nc4c(Cl)c(OC)cc(OC)c4Cl)ncn3)cc2)CC1 [infigratinib] | 63 | -2.62 | -2.33 | -32 | -6.49 |  | -0.947 | 7 | -17 | -4 |  |  |  |  |  |  |  |  |  |  |

Continued, in another order:

| inhibition at 1 µM [1, 11] [%] | inhibition at 1 µM [2, 12] [%] | inhibition at 1 µM [3, 13] [%] | inhibition at 1 µM [4, 14] [%] | inhibition at 1 µM [5, 15] [%] | inhibition at 1 µM [6, 16] [%] | inhibition at 1 µM [7, 17] [%] | inhibition at 1 µM [8, 18] [%] | inhibition at 1 µM [9, 19] [%] | inhibition at 1 µM [10, 20] [%] | SMILES | inhibition at 1 µM [1] [%] | inhibition at 1 µM [2] [%] | inhibition at 1 µM [3] [%] | inhibition at 1 µM [4] [%] | inhibition at 1 µM [5] [%] | inhibition at 1 µM [6] [%] | inhibition at 1 µM [7] [%] | inhibition at 1 µM [8] [%] | inhibition at 1 µM [9] [%] | inhibition at 1 µM [10] [%] |
| --- | --- | --- | --- | --- | --- | --- | --- | --- | --- | --- | --- | --- | --- | --- | --- | --- | --- | --- | --- | --- |
| 73 | 0.41 | -5.68 | -5.47 | 2.36 | 5 | 12 | 27 | -12 | -4 | COc1ccc(CN2C3CC2CN(c2ccc(-c4cc(OCC(C)(C)O)cn5ncc(C#N)c45)cn2)C3)cn1 [selpercatinib] |  |  |  |  |  |  |  |  |  |  |
| 26 | 0.246 | -5.32 | -13 | -2.19 | -0.211 | -4.74 | 6 | -16 | -6 | O=C(Nc1cnn2ccc(N3CCC[C@@H]3c3cc(F)ccc3F)nc12)N1CC[C@H](O)C1 [larotrectinib] |  |  |  |  |  |  |  |  |  |  |
| 10 | 0.486 | -3.59 | -28 | 0.505 | 4.63 | 11 | 4.65 | -3 | -0.547 | Cc1cc(Nc2ncnc3ccc(NC4=NC(C)(C)CO4)cc23)ccc1Oc1ccn2ncnc2c1 [tucatinib] |  |  |  |  |  |  |  |  |  |  |
| -10 | -2.65 | -16 | -13 | -3.48 | 2.19 | 1.68 | -0.365 | -11 | 0.0301 | Cn1cnc2c(F)c(Nc3ccc(Br)cc3F)c(C(=O)NOCCO)cc21 [binimetinib] |  |  |  |  |  |  |  |  |  |  |
| 5.45 | 0.343 | 4 | -16 | -2.48 | -5.3 | -1.77 | 0.447 | -13 | -0.753 | Cc1nc(NC(=O)N2CCC[C@H]2C(N)=O)sc1-c1ccnc(C(C)(C)C(F)(F)F)c1 [alpelisib] |  |  |  |  |  |  |  |  |  |  |
